{"source": "patent US20150329558A1", "about": "“FUSED HETEROCYCLIC COMPOUNDS AS ION CHANNEL MODULATORS” (Gilead Sciences, Inc., priority 2011, published 2015)", "data": [{"target": "wild-type human cardiac sodium channel, hNav1.5 (late INa) (Homo sapiens, UniProt Q14524)", "sequence (Q14524 whole entry)": "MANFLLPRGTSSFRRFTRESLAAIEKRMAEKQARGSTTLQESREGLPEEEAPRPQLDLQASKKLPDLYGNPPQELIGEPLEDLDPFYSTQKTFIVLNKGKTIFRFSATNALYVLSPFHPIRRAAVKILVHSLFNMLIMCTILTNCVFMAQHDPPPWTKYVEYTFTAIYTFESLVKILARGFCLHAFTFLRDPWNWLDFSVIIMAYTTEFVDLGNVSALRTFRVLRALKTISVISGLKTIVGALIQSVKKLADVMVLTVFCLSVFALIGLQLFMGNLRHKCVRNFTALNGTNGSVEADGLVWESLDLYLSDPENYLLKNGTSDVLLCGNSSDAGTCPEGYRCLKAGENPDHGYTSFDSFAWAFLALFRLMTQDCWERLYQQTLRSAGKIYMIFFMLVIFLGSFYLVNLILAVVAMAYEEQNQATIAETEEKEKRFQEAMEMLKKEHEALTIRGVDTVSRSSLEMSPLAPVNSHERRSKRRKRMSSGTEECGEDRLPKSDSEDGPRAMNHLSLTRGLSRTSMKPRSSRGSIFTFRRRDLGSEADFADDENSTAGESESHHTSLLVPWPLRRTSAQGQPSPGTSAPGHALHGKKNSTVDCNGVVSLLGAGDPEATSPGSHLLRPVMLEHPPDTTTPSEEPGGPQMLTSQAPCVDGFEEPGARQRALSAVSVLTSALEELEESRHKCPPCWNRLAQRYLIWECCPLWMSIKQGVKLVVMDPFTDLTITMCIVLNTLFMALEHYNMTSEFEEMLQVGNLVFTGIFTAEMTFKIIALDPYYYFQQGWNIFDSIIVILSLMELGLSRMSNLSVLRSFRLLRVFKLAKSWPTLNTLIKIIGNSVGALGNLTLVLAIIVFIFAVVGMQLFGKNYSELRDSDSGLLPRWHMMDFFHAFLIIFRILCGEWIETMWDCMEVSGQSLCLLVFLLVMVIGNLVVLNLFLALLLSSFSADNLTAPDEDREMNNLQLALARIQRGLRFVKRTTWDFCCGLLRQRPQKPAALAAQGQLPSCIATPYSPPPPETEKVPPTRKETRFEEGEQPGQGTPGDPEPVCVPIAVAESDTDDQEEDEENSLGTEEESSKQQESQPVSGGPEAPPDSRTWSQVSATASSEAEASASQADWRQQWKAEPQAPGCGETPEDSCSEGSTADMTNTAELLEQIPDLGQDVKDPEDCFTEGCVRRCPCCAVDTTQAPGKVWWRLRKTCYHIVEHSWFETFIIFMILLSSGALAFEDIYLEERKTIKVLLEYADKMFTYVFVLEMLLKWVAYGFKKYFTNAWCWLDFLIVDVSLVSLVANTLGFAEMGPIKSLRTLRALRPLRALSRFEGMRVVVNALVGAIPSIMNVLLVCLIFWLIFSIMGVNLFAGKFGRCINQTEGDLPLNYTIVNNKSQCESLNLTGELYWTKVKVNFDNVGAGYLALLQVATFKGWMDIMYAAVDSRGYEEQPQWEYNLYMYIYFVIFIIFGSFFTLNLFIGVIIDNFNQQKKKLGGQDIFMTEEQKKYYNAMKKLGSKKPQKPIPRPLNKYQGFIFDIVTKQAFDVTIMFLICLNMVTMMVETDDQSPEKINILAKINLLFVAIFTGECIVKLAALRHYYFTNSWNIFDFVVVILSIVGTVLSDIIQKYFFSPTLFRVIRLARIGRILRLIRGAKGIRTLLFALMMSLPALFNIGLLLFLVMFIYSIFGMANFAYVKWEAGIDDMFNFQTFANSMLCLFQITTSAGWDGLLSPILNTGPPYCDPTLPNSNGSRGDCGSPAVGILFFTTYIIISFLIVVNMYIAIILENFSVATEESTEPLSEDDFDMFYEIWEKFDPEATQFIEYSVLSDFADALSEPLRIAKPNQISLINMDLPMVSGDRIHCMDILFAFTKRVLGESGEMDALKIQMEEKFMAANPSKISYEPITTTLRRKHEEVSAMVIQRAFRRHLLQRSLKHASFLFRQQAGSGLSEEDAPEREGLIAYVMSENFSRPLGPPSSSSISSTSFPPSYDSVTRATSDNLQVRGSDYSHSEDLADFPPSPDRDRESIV", "assay": "Late INa screening assay (QPatch whole cell patch clamp)", "type": "cell-based", "conditions": "percent block of late INa, compound at 1 μM, 10 μM Tefluthrin, HEK293 hNav1.5; read-out: Late INa 1 μM", "description": "The late sodium current (Late INa) and peak sodium current (Peak INa) assays are performed on an automated electrophysiology platform, QPatch 16× (Sophion Bioscience, Copenhagen, Denmark), which uses the whole cell patch clamp technique to measure currents through the cell membrane of up to 16 cells at a time. The assay uses an HEK293 (human embryonic kidney) cell line heterologously expressing the wild-type human cardiac sodium channel, hNav1.5, purchased from Millipore (Billerica, Mass.). No beta subunits were coexpressed with the Na channel alpha subunit. Cells are maintained with standard tissue culture procedures and stable channel expression is maintained with 400 μg/mL Geneticin in the culture medium. […] Experiments are carried out at 23-25° C. For both the Late INa and Peak INa assays, series resistance compensation is set to 100% and series resistance and whole-cell compensation are performed automatically. Currents are digitized at 25 kHz and low-pass filtered at 12 kHz and 10 kHz for the late and peak INa assays, respectively. Currents through open sodium channels are automatically recorded and stored in the Sophion Bioscience Oracle database (Sophion Bioscience, Copehagen, Denmark). Analysis is performed using QPatch Assay and database software and data are compiled in Excel. Compound stocks are routinely made by the Gilead Sample Bank in plastic vials to 10 mM in dimethyl sulfoxide (DMSO). In some cases, when compounds are not soluble in DMSO, they are made in 100% ethanol. Stocks are sonicated as necessary. […] The intracellular solution used to perfuse the inside of the cells for both the Late INa and Peak INa assays contains: 120 mM CsF, 20 mM CsCl, 5 mM EGTA, 5 mM HEPES and pH adjusted to 7.4 with CsOH. Compounds are diluted in extracellular solution to 1 μM in glass vials and then transferred to glass well plates before robotic addition to the cells. […] For the Late INa assay, sodium channels are activated every 10 seconds (0.1 Hz) by depolarizing the cell membrane to −20 mV for 250 milliseconds (ms) from a holding potential of −120 mV. In response to a −20 mV voltage step, typical hNav1.5 sodium currents activate rapidly to a peak negative current and then inactivate nearly completely within 3-4 ms. All compounds were tested to determine their activity in blocking the late sodium current. Late INa was generated by adding 10 μM Tefluthrin (pyrethroid) to the extracellular solution while recording Na currents. To confirm the block of late INa observed using the automated screening method, a second late INa enhancer (ATX-II) and the manual patch clamp method were used. ATX-II and tefluthrin occupy distinct, non-overlapping binding sites and modify Na^+ channel function differently to increase late INa. […] For the purposes of the screening, late INa is defined as the mean current between 225 ms and 250 ms after stepping to −20 mV to activate Na channels. […] Results are reported as percent block of late INa.", "units": {"inhibition at 1 µM": "%"}, "values": [{"smiles": "O=C1c2cc(-c3ccc(C(F)(F)F)cc3F)ccc2OCN1Cc1ccccc1", "note": "[VIII-22, 3-benzyl-6-(2-fluoro-4-(trifluoromethyl)phenyl)-2H-benzo[e][1,3]oxazin-4(3H)-one]", "inhibition at 1 µM": 45}, {"smiles": "O=c1c2cc(-c3ccc(OC(F)(F)F)cc3)ccc2nnn1Cc1nc(Cc2ccccc2)no1", "note": "[II-12, 3-((3-benzyl-1,2,4-oxadiazol-5-yl)methyl)-6-(4-(trifluoromethoxy)phenyl)benzo[d][1,2,3]triazin-4(3H)-one]", "inhibition at 1 µM": 21}, {"smiles": "O=c1c2cc(-c3ccc(OC(F)(F)F)cc3)ccc2cnn1Cc1ccccc1", "note": "[III-6, 2-benzyl-7-(4-(trifluoromethoxy)phenyl)phthalazin-1(2H)-one]", "inhibition at 1 µM": 18}, {"smiles": "CC(c1nc(C2CC2)no1)n1nnc2ccc(-c3ccc(OC(F)(F)F)cc3)cc2c1=O", "note": "(centres unmarked) [II-79, 3-(1-(3-cyclopropyl-1,2,4-oxadiazol-5-yl)ethyl)-6-(4-(trifluoromethoxy)phenyl)benzo[d][1,2,3]triazin-4(3H)-one]", "inhibition at 1 µM": 54}, {"smiles": "CC(C)n1cc(C(=O)N2CCc3ccc(-c4ccc(C(F)(F)F)cc4)cc3C2)cn1", "note": "[IX-27, (1-isopropyl-1H-pyrazol-4-yl)(7-(4-(trifluoromethyl)phenyl)-3,4-dihydroisoquinolin-2(1H)-yl)methanone]", "inhibition at 1 µM": 18}, {"smiles": "O=c1c2cc(-c3ccc(OC(F)(F)F)cc3)ccc2nnn1CC1(Cn2ccnc2)CC1", "note": "[II-58, 3-((1-((1H-imidazol-1-yl)methyl)cyclopropyl)methyl)-6-(4-(trifluoromethoxy)phenyl)benzo[d][1,2,3]triazin-4(3H)-one]", "inhibition at 1 µM": 25}, {"smiles": "Cn1cncc1C(=O)N1CCc2ccc(-c3ccc(C(F)(F)F)cc3)cc2C1", "note": "[IX-56, (1-methyl-1H-imidazol-5-yl)(7-(4-(trifluoromethyl)phenyl)-3,4-dihydroisoquinolin-2(1H)-yl)methanone]", "inhibition at 1 µM": 28}, {"smiles": "O=c1c2cc(-c3ccc(OC(F)(F)F)cc3)ccc2nnn1Cn1nnnc1-c1ccccc1", "note": "[II-21, 3-((5-phenyl-1H-tetrazol-1-yl)methyl)-6-(4-(trifluoromethoxy)phenyl)benzo[d][1,2,3]triazin-4(3H)-one]", "inhibition at 1 µM": 70}, {"smiles": "O=c1c2cc(-c3ccc(OC(F)(F)F)cc3)ccc2cnn1CCn1cc(Br)cn1", "note": "[III-31, 2-(2-(4-bromo-1H-pyrazol-1-yl)ethyl)-7-(4-(trifluoromethoxy)phenyl)phthalazin-1 (2H)-one]", "inhibition at 1 µM": 27}, {"smiles": "O=C(NC1CCCC1)N1CCc2ccc(-c3ccc(C(F)(F)F)cc3)cc2C1", "note": "[IX-77, N-cyclopentyl-7-(4-(trifluoromethyl)phenyl)-3,4-dihydroisoquinoline-2(1H)-carboxamide]", "inhibition at 1 µM": 22}, {"smiles": "Cc1nc(Cn2nnc3ccc(-c4ccc(OC(F)(F)F)cc4)cc3c2=O)oc1C", "note": "[II-23, 3-((4,5-dimethyloxazol-2-yl)methyl)-6-(4-(trifluoromethoxy)phenyl)benzo[d][1,2,3]triazin-4(3H)-one]", "inhibition at 1 µM": 23}, {"smiles": "CC1(O)CN(C(=O)N2CCc3ccc(-c4ccc(C(F)(F)F)cc4)cc3C2)C1", "note": "[IX-112, (3-hydroxy-3-methylazetidin-1-yl)(7-(4-(trifluoromethyl)phenyl)-3,4-dihydroisoquinolin-2(1H)-yl)methanone]", "inhibition at 1 µM": 18}, {"smiles": "CC(C)(C)OC(=O)N1CCC[C@@H]1C(=O)N1CCc2ccc(-c3ccc(C(F)(F)F)cc3)cc2C1", "note": "[IX-114, (R)-tert-butyl 2-(7-(4-(trifluoromethyl)phenyl)-1,2,3,4-tetrahydroisoquinoline-2-carbonyl)pyrrolidine-1-carboxylate]", "inhibition at 1 µM": 20}, {"smiles": "O=C(N1CCc2ccc(-c3ccc(C(F)(F)F)cc3)cc2C1)N1CC(Oc2cccnc2)C1", "note": "[IX-93, (3-(pyridin-3-yloxy)azetidin-1-yl)(7-(4-(trifluoromethyl)phenyl)-3,4-dihydroisoquinolin-2(1H)-yl)methanone]", "inhibition at 1 µM": 15}, {"smiles": "O=C(c1cncnc1)N1CCc2ccc(-c3ccc(C(F)(F)F)cc3)cc2C1", "note": "[IX-33, pyrimidin-5-yl(7-(4-(trifluoromethyl)phenyl)-3,4-dihydroisoquinolin-2(1H)-yl)methanone]", "inhibition at 1 µM": 21}, {"smiles": "O=C1c2cc(-c3ccc(C(F)(F)F)cc3)ccc2OCN1Cc1ccccc1", "note": "[VIII-21, 3-benzyl-6-(4-(trifluoromethyl)phenyl)-2H-benzo[e][1,3]oxazin-4(3H)-one]", "inhibition at 1 µM": 58}, {"smiles": "O=C(NCc1ncccn1)N1CCc2ccc(-c3ccc(OC(F)(F)F)cc3)cc2C1", "note": "[IX-123, N-(pyrimidin-2-ylmethyl)-7-(4-(trifluoromethoxy)phenyl)-3,4-dihydroisoquinoline-2(1H)-carboxamide]", "inhibition at 1 µM": 17}, {"smiles": "CC(C)c1nccc(C(=O)N2CCc3ccc(-c4ccc(C(F)(F)F)cc4)cc3C2)n1", "note": "[IX-31, (2-isopropylpyrimidin-4-yl)(7-(4-(trifluoromethyl)phenyl)-3,4-dihydroisoquinolin-2(1H)-yl)methanone]", "inhibition at 1 µM": 25}, {"smiles": "O=C(c1ncccn1)N1CCc2ccc(-c3ccc(Cl)cc3F)cc2C1", "note": "[IX-23, (7-(4-chloro-2-fluorophenyl)-3,4-dihydroisoquinolin-2(1H)-yl)(pyrimidin-2-yl)methanone]", "inhibition at 1 µM": 27}, {"smiles": "N#Cc1cccc(Cn2ncc3ccc(-c4ccc(OC(F)(F)F)cc4)cc3c2=O)n1", "note": "[III-12, 6-((1-oxo-7-(4-(trifluoromethoxy)phenyl)phthalazin-2(1H)-yl)methyl)picolinonitrile]", "inhibition at 1 µM": 21}, {"smiles": "O=C1c2cc(C#Cc3ccc(C(F)(F)F)cc3)ccc2CCN1Cc1ncccn1", "note": "[IX-4]", "inhibition at 1 µM": 20}, {"smiles": "O=c1c2cc(-c3ccc(OC(F)(F)F)cc3)ccc2nnn1Cn1nc2ccccc2n1", "note": "[II-28, 3-((2H-benzo[d][1,2,3]triazol-2-yl)methyl)-6-(4-(trifluoromethoxy)phenyl)benzo[d][1,2,3]triazin-4(3H)-one]", "inhibition at 1 µM": 19}, {"smiles": "O=C(N1CCc2ccc(-c3ccc(C(F)(F)F)cc3)cc2C1)N1CCC(O)C1", "note": "(centres unmarked) [IX-91, (3-hydroxypyrrolidin-1-yl)(7-(4-(trifluoromethyl)phenyl)-3,4-dihydroisoquinolin-2(1H)-yl)methanoneo]", "inhibition at 1 µM": 16}, {"smiles": "Cc1nn(C)c(C)c1C(=O)N1CCc2ccc(-c3ccc(C(F)(F)F)cc3)cc2C1", "note": "[IX-26, (7-(4-(trifluoromethyl)phenyl)-3,4-dihydroisoquinolin-2(1H)-yl)(1,3,5-trimethyl-1H-pyrazol-4-yl)methanone]", "inhibition at 1 µM": 15}, {"smiles": "CC1(C)Oc2ccc(-c3ccc(OC(F)(F)F)cc3)cc2C(=O)N1Cc1ccccn1", "note": "[VIII-13, 2,2-dimethyl-3-(pyridin-2-ylmethyl)-6-(4-(trifluoromethoxy)phenyl)-2H-benzo[e][1,3]oxazin-4(3H)-one]", "inhibition at 1 µM": 20}, {"smiles": "O=C1c2cc(C#Cc3ccc(OC(F)(F)F)cc3)ccc2CCN1Cc1ncccn1", "note": "[IX-5]", "inhibition at 1 µM": 20}, {"smiles": "O=c1c2cc(-c3ccc(OC(F)(F)F)cc3)ccc2cnn1CCc1ccccc1", "note": "[III-8, 2-phenethyl-7-(4-(trifluoromethoxy)phenyl)phthalazin-1(2H)-one]", "inhibition at 1 µM": 19}, {"smiles": "O=C(N1CCc2ccc(-c3ccc(C(F)(F)F)cc3)cc2C1)N1CC[C@@H](CO)C1", "note": "[IX-101, (R)-(3-(hydroxymethyl)pyrrolidin-1-yl)(7-(4-(trifluoromethyl)phenyl)-3,4-dihydroisoquinolin-2(1H)-yl)methanone]", "inhibition at 1 µM": 15}, {"smiles": "CS(=O)(=O)C1CN(C(=O)N2CCc3ccc(-c4ccc(C(F)(F)F)cc4)cc3C2)C1", "note": "[IX-104, (3-(methylsulfonyl)azetidin-1-yl)(7-(4-(trifluoromethyl)phenyl)-3,4-dihydroisoquinolin-2(1H)-yl)methanone]", "inhibition at 1 µM": 20}, {"smiles": "O=C(Cn1nnc2ccc(-c3ccc(Oc4ccc(Cl)cc4)cc3)cc2c1=O)N1CCN(c2ncccn2)CC1", "note": "[II-65, 6-(4-(4-chlorophenoxyl)phenyl)-3-(2-oxo-2-(4-(pyrimidin-2-yl)piperazin-1-yl)ethyl)benzo[d][1,2,3]triazin-4(3H)-one]", "inhibition at 1 µM": 19}, {"smiles": "Cc1nn(C)cc1C(=O)N1CCc2ccc(-c3ccc(C(F)(F)F)cc3)cc2C1", "note": "[IX-28, (1,3-dimethyl-1H-pyrazol-4-yl)(7-(4-(trifluoromethyl)phenyl)-3,4-dihydroisoquinolin-2(1H)-yl)methanone]", "inhibition at 1 µM": 24}, {"smiles": "O=C(c1ncccn1)N1CCc2ccc(-c3ccc(C(F)(F)F)cc3F)cc2C1", "note": "[IX-22, (7-(2-fluoro-4-(trifluoromethyl)phenyl)-3,4-dihydroisoquinolin-2(1H)-yl)(pyrimidin-2-yl)methanone]", "inhibition at 1 µM": 29}]}]}
